Results reported in US6225307A, “Viral treatment” (priority 2000, dated 2001).

Tests used:
HIV-1 cell line, CEMRF = assay: Long term in vitro study, CEMRF cells, reverse transcriptase analysis; format: cell-based; set-up: Reverse transcriptase data: unit not given here
Method: (§1) A microtiter-based reveres transcriptase (RT) reaction is utilized (Buckheit et al (1991) AIDS Research and Human Retroviruses 7:295-302). Tritiated thymidine triphosphate (NEN)(TTP) is resuspended in distilled water at 5 Ci/ml. Poly rA and oligo dT are prepared as a stock solution which is kept at -20° C. The RT reaction buffer is prepared fresh on a daily basis and consists of 125 μl 1M EGTA, 125 μl water, 125 μl Triton X-100, 50 μl Tris (pH 7.4), 50 μl MDDT, and 40 μl 1M MgCl2. These three solutions are mixed together in a ratio of 1 part TTP, 2.5 parts poly rA:oligo dT, 2.5 parts reaction buffer and 4 parts distilled water. Ten microliters of this reaction mixture is placed in a round bottom microtiter place and 15 μl of virus containing supernatant is added and mixed. The plate is incubated at 37° C. and incubated for 60 minutes. Following reaction, the reaction volume is spotted onto filter mats, washed 6 times for 5 minutes each in a 5% sodium phosphate buffer, 2 times for 1 minute each in distilled water, 2 times for 1 minute each in 70% ethanol, and then dried. The dried filter mat is placed in a plastic sample bag, Betaplate scintillation fluid is added and the bag is heat sealed. Incorporated radioactivity is quantified utilizing a Wallac Microbeta scintillation counter.
Acute infection of most established human cell lines with HIV- I results in the eventual establishment of a constitutive virus-producing chronically infected cell line. The cells can be passaged for long periods of time in culture without loss of virus production. These cells may be utilized to evaluate the effects of anti-HIV compounds on syncytium formation or to evaluate the effects of anti-HIV compounds on levels of virus production from these cells. […] Each of the cells contains an integrated HIV genome or provirus. Chronically infected CEM, H9 and U937 cell lines have been prepared and cultured by Southern Research Institute, Frederick Md. and are available from them.
CEM-SS cells chronically infected with HIV isolate, for example SKI (CEM-SKI) are cultured in RPM1640 tissue culture medium supplemented with 10% fetal bovine serum and antibiotics. Selection is performed by culturing the cells in the presence of the compound to be tested in T25 flasks. CEM-SKI or other infected cells with no added drug are used as the control cells. Cells are allowed to grow to a density of approximately 1×10^6 cells/ml and are then passaged at a 1:10 dilution. After a period of time, usually one week intervals of drug treatment, cells are evaluated to determine if the inhibitory activity of the compound has been affected by treatment of the cells with either compounds. The drug concentration in the flask is then increased two-fold and the cells maintained as above.
(§2) The cell populations contain integrated copies of the HIV genome and constitutively produce HIV at relatively high levels or are latently infected and only produce virus after stimulation with phorbol esters, tumor necrosis factor or IL6(U1 and ACH2). Reductions in virus products were observed when quantifying supernatant reverse transcriptase activity,
Toxicity Values are measured by XTT and activity of the compound in the tests is measured by a Reverse Transcriptase analysis.
A long term in vitro study of 3-hexahydro-3-ethyl-1-methyl-2-oxo-1H-azepin-3-yl)phenyl ester of 4-chlorophenyl carbamic acid against an HIV-1 cell line, CEMRF, was conducted at three different levels. The results with CEMRF cells were reported at weekly intervals. CEMRF is a chronic HIV cell line.

HIV-1 cell line, CEMSKI = assay: Long term in vitro study, CEMSKI cells, reverse transcriptase analysis; format: cell-based; settings: for Reverse transcriptase data: 7 μg/ml
Method: as §1
Acute infection of most established human cell lines with HIV- I results in the eventual establishment of a constitutive virus-producing chronically infected cell line. The cells can be passaged for long periods of time in culture without loss of virus production. These cells may be utilized to evaluate the effects of anti-HIV compounds on syncytium formation or to evaluate the effects of anti-HIV compounds on levels of virus production from these cells. […] Each of the cells contains an integrated HIV genome or provirus. […]
CEM-SS cells chronically infected with HIV isolate, for example SKI (CEM-SKI) are cultured in RPM1640 tissue culture medium supplemented with 10% fetal bovine serum and antibiotics. […] After a period of time, usually one week intervals of drug treatment, cells are evaluated to determine if the inhibitory activity of the compound has been affected by treatment of the cells with either compounds. […]
as §2
Toxicity Values are measured by XTT and activity of the compound in the tests is measured by a Reverse Transcriptase analysis. […]

Compound: CCC1(c2cccc(OC(=O)Nc3ccc(Cl)cc3)c2)CCCCN(C)C1=O (centres unmarked) [(4-chlorophenyl)-carbamic acid, 3-(hexahydro-3-ethyl-1-methyl-2-oxo-1H-azepin-3-yl) 2 phenyl ester]
- Reverse transcriptase data (HIV-1 cell line, CEMRF; 7 μg/ml, Day 4): 1942
- Reverse transcriptase data (HIV-1 cell line, CEMRF; 7 μg/ml, Day 11): 1537
- Reverse transcriptase data (HIV-1 cell line, CEMRF; 7 μg/ml, Day 18): 1683
- Reverse transcriptase data (HIV-1 cell line, CEMRF; 7 μg/ml, Day 25): 1624
- Reverse transcriptase data (HIV-1 cell line, CEMRF; 7 μg/ml, Day 32): 1286
- Reverse transcriptase data (HIV-1 cell line, CEMRF; 7 μg/ml, Day 39): 1368
- Reverse transcriptase data (HIV-1 cell line, CEMRF; 7 μg/ml, Day 46): 1588
- Reverse transcriptase data (HIV-1 cell line, CEMRF; 7 μg/ml, Day 53): 1482
- Reverse transcriptase data (HIV-1 cell line, CEMRF; 7 μg/ml, Day 60): 1381
- Reverse transcriptase data (HIV-1 cell line, CEMRF; 7 μg/ml, Day 67): 1231
- Reverse transcriptase data (HIV-1 cell line, CEMRF; 7 μg/ml, Day 71): 1321
- Reverse transcriptase data (HIV-1 cell line, CEMRF; 7 μg/ml, Day 74): 1528
- Reverse transcriptase data (HIV-1 cell line, CEMRF; 7 μg/ml, Day 88): 1454
- Reverse transcriptase data (HIV-1 cell line, CEMRF; 7 μg/ml, Day 95): 1168
- Reverse transcriptase data (HIV-1 cell line, CEMRF; 7 μg/ml, Day 102): 1463
- Reverse transcriptase data (HIV-1 cell line, CEMRF; 7 μg/ml, Day 109): 1440
- Reverse transcriptase data (HIV-1 cell line, CEMRF; 15 μg/ml, Day 4): 1402
- Reverse transcriptase data (HIV-1 cell line, CEMRF; 15 μg/ml, Day 11): 1402
- Reverse transcriptase data (HIV-1 cell line, CEMRF; 15 μg/ml, Day 18): 1281
- Reverse transcriptase data (HIV-1 cell line, CEMRF; 15 μg/ml, Day 25): 1582
- Reverse transcriptase data (HIV-1 cell line, CEMRF; 15 μg/ml, Day 32): 1140
- Reverse transcriptase data (HIV-1 cell line, CEMRF; 15 μg/ml, Day 39): 1028
- Reverse transcriptase data (HIV-1 cell line, CEMRF; 15 μg/ml, Day 46): 1056
- Reverse transcriptase data (HIV-1 cell line, CEMRF; 15 μg/ml, Day 53): 1160
- Reverse transcriptase data (HIV-1 cell line, CEMRF; 15 μg/ml, Day 60): 1056
- Reverse transcriptase data (HIV-1 cell line, CEMRF; 15 μg/ml, Day 67): 1002
- Reverse transcriptase data (HIV-1 cell line, CEMRF; 15 μg/ml, Day 71): 1108
- Reverse transcriptase data (HIV-1 cell line, CEMRF; 15 μg/ml, Day 74): 1201
- Reverse transcriptase data (HIV-1 cell line, CEMRF; 15 μg/ml, Day 88): 1068
- Reverse transcriptase data (HIV-1 cell line, CEMRF; 15 μg/ml, Day 95): 1004
- Reverse transcriptase data (HIV-1 cell line, CEMRF; 15 μg/ml, Day 102): 1165
- Reverse transcriptase data (HIV-1 cell line, CEMRF; 15 μg/ml, Day 109): 1265
- Reverse transcriptase data (HIV-1 cell line, CEMRF; 30 μg/ml, Day 4): 650
- Reverse transcriptase data (HIV-1 cell line, CEMRF; 30 μg/ml, Day 11): 463
- Reverse transcriptase data (HIV-1 cell line, CEMRF; 30 μg/ml, Day 18): 221
- Reverse transcriptase data (HIV-1 cell line, CEMRF; 30 μg/ml, Day 25): 643
- Reverse transcriptase data (HIV-1 cell line, CEMRF; 30 μg/ml, Day 32): 462
- Reverse transcriptase data (HIV-1 cell line, CEMRF; 30 μg/ml, Day 39): 221
- Reverse transcriptase data (HIV-1 cell line, CEMRF; 30 μg/ml, Day 46): 149
- Reverse transcriptase data (HIV-1 cell line, CEMRF; 30 μg/ml, Day 53): 281
- Reverse transcriptase data (HIV-1 cell line, CEMRF; 30 μg/ml, Day 60): 248
- Reverse transcriptase data (HIV-1 cell line, CEMRF; 30 μg/ml, Day 67): 147
- Reverse transcriptase data (HIV-1 cell line, CEMRF; 30 μg/ml, Day 71): 201
- Reverse transcriptase data (HIV-1 cell line, CEMRF; 30 μg/ml, Day 74): 161
- Reverse transcriptase data (HIV-1 cell line, CEMRF; 30 μg/ml, Day 88): 249
- Reverse transcriptase data (HIV-1 cell line, CEMRF; 30 μg/ml, Day 95): 176
- Reverse transcriptase data (HIV-1 cell line, CEMRF; 30 μg/ml, Day 102): 197
- Reverse transcriptase data (HIV-1 cell line, CEMRF; 30 μg/ml, Day 109): 370
- Reverse transcriptase data, continued test (HIV-1 cell line, CEMRF; run through 222 days): data remained consistent
- Reverse transcriptase data (HIV-1 cell line, CEMSKI; Day 4): 8474
- Reverse transcriptase data (HIV-1 cell line, CEMSKI; Day 11): 7217
- Reverse transcriptase data (HIV-1 cell line, CEMSKI; Day 18): 9141
- Reverse transcriptase data, continued test (HIV-1 cell line, CEMSKI; run through 222 days): data remained consistent
